The values that follow come from patent US9079874B2, “α-Lipoic acid nanoparticles and methods for preparing thereof” (Ezaki Glico Co., Ltd., priority 2007, dated 2015).

The conditions of data set [1]: cited from earlier work.
Data set [2] deals with 3T3-L1 cells. Nature of the data set: Differentiation of preadipocytes, lipid accumulation by Oil Red O, Test Example 7. It is filed as cell-based. The note with it: added to adipocyte differentiation induction medium, 100, 250 or 500 μM α-lipoic acid, 4 days; nanoparticles of Example 20A. On the procedure: 1.5 ml of D-MEM medium (D-MEM medium supplemented with 10% FCS, 100 units/ml of penicillin, and 100 μg/ml of streptomycin, all at final concentrations) was added to a plastic petri dish having a diameter of 3.5 cm. To this, 5.0×10^4 cells of 3T3-L1 cells, which are preadipocytes, were suspended, and precultured for 3 days to result in a confluent state. Thereafter, the medium was replaced with 3 ml of an adipocyte differentiation induction medium (D-MEM supplemented with 10% FCS, 100 units/ml of penicillin, 100 μg/ml of streptomycin, 5 μg/ml of insulin, 0.25 μM of dexamethasone, and 0.5 mM of isobutyl-methylxanthine (IBMX), all at final concentrations). After another 2 days, the medium was replaced with 3 ml of the adipocyte differentiation induction medium of the same composition, and then the culturing was carried out for 2 days. Thus, the culturing in the adipocyte differentiation induction medium was carried out for 4 days in total. During this culturing, an α-lipoic acid solution or the α-lipoic acid-MgCO3 nanoparticle solution of Example 20A was added to the adipocyte differentiation induction medium to result in 0, 100, 250 or 500 μM of α-lipoic acid concentration. […]
The amount of accumulated lipids in the cultured cells thus obtained was measured. […] The whole amount of this solution was recovered, and the absorbance at a wavelength of 520 nm was measured with a spectrophotometer.

Data set [3] is described as follows: Improvement in sulfurous odor, Test Example 2 (left indoors under sunlight). The note with it: 0.1% α-lipoic acid in water, after two weeks. It is filed as physicochemical. The text has this:
The paste after freeze-drying of the α-lipoic acid-MgCO3 nanoparticles produced in Example 1A, and the paste after freeze-drying of the α-lipoic acid nanoparticles produced in Comparative Example 1A without adding magnesium chloride and sodium carbonate, were respectively dispersed in distilled water such that the final concentration of α-lipoic acid reached 0.1%. The dispersions were placed in transparent test tubes made of resin, and the test tubes were left to stand indoors under sunlight. As a control, an aqueous dispersion liquid having α-lipoic acid dissolved in water (final concentration of α-lipoic acid 0.1%), which was prepared by adding an alkali (5M NaOH) to reagent α-lipoic acid, and thereby adjusting the pH to 7 to 7.5, was also left to stand in the same manner.

Data set [4] is described as follows: Thermostability test of preparation, Test Example 1 (60° C., HPLC). The conditions noted are these: for Residual ratio(%) of α-lipoic acid: 60° C. Type of data set: physicochemical. On the procedure:
The α-lipoic acid-MgCO3 nanoparticles produced in Example 1A, and the α-lipoic acid nanoparticles produced in Comparative Example 1A without adding magnesium chloride and sodium carbonate were respectively heated at 60° C., and the amounts of α-lipoic acid in the sample after one hour of heating and after 3 hours of heating were analyzed by HPLC. As a control, a reagent α-lipoic acid was used. The amount of α-lipoic acid after heating was divided by the amount of α-lipoic acid before heating, and the result was multiplied by 100 such that the residual ratio of α-lipoic acid was calculated. Symbol Δ represents the results of control reagent of α-lipoicacid, symbol ▪ represents the results of the α-lipoic acid dispersion liquid of Comparative Example 1, and symbol □ represents the results of the α-lipoic acid-MgCO3 nanoparticles of Example 1A.

Data set [5] has as its system 3T3-L1 cells. Nature of the data set: Dedifferentiation of mature adipocytes, lipid accumulation by Oil Red O, Test Example 8. Type of data set: cell-based. The note with it: added to adipocyte maturation medium, 100, 250 or 500 μM α-lipoic acid, 4 days; nanoparticles of Example 20A. The method, then:
1.5 ml of D-MEM medium (D-MEM medium supplemented with 10% FCS, 100 units/ml of penicillin, and 100 μg/ml of streptomycin, all at final concentrations) was added to a plastic petri dish having a diameter of 3.5 cm. To this, 5.0×10^4 cells of 3T3-L1 cells, which are preadipocytes, were suspended, and precultured for 3 days to result in a confluent state. Thereafter, the medium was replaced with 3 ml of an adipocyte differentiation induction medium (D-MEM medium supplemented with 10% FCS, 100 units/ml of penicillin, 100 μg/ml of streptomycin, 5 μg/ml of insulin, 0.25 μM of dexamethasone, and 0.5 mM of isobutyl-methylxanthine, all at final concentrations), and the culturing was carried out for 4 days to induce the differentiation into adipocytes. Thereafter, the medium was replaced with an adipocyte maturation medium (D-MEM medium supplemented with 10% FCS, 100 units/ml of penicillin, 100 μg/ml of streptomycin, and 5 μg/ml of insulin, all at final concentrations), and the culturing was carried out for 7 days. Thereafter, the medium was replaced with a test medium, and culturing was carried out for another 4 days. […]
The amount of accumulated lipids in the cultured cells thus obtained was measured. […] The total amount of this solution was recovered, and the absorbance at a wavelength of 520 nm was measured with a spectrophotometer.

`CC1=C(/C=C/C(C)=C/C=C/C(C)=C/C(=O)O)C(C)(C)CCC1` [retinoic acid]: the pKa value in data set [1] is listed as 6.4.

As for `O=C(O)CCCCC1CCSS1` (stereo not drawn) [α-lipoic acid], the “accumulation of lipids in cells (Oil Red O, 520 nm)” value in the data set on 3T3-L1 cells [2] is reported as “reduction of the accumulation of lipids”. Moreover, in data set [3], the sulfurous odor result is “characteristic sulfurous odor strongly emanated”. For the same compound, in data set [1], the pKa value is recorded as 4.76. The “Residual ratio(%) of α-lipoic acid” value stood at 100% in data set [4] (heating time 0 hrs), 50.51% in data set [4] (heating time 1 hr) and 44.20% in data set [4] (heating time 3 hrs). Besides, the “reduction of the amount of α-lipoic acid” value in data set [4] (after 3 hours of heating at 60° C.) is recorded as “about 55%”. Besides, in the data set on 3T3-L1 cells [5], the “amount of lipid accumulation in mature adipocytes (Oil Red O, 520 nm)” value is “almost indifferent from that of the non-added group”.
